Results published in patent publication US8022072B2, “Azolylmethylidenehydrazine derivative and use thereof” (Kaken Pharmaceutical Co., Ltd., priority 2007, dated 2011).
Converted amounts (≈) assume the structure as drawn.

Tests used:
Type in all cases: cell-based
[1] = test system: Trichophyton rubrum KD-101; experiment: Antifungal activity evaluation test, MIC, Trichophyton rubrum KD-101; settings: KD101, 168 h, Sabouraud Dextrose Broth, 30° C., 7 days, visual, read-out: MIC T. rub. KD-101
Experimental: (§1) The minimum inhibitory concentration (MIC) for Trichophyton mentagrophytes, Trichophyton rubrum, and Malassezia furfur was measured according to the following procedure. • Test compound solution: A test compound was dissolved in dimethyl sulfoxide (DMSO) at a concentration of 5 mg/mL as a stock solution. […] Then, as a test medium, a fungal solution of Trichophyton species was 100-fold diluted with Sabouraud Dextrose Broth (Difco), and a fungal solution of Malassezia furfur IFO-0656 was 100-fold diluted with MU medium to give each inoculum (2×10^4 cells/mL). • Measurement of MIC of Trichophyton fungi: Sabouraud Dextrose Broth (Difco) was dispensed by 100 μL to a given well of a 96 well flat microplate. Then, a test compound solution (2 μL) was added, and the mixture was thoroughly mixed with a plate mixer. A fungal solution (100 μL) was inoculated and cultured at 30° C. for 7 days. The presence or absence of the cell growth was visually observed, and the minimum medicament concentration at which the cell growth was prevented was taken as MIC (μg/mL). • Measurement of MIC of Malassezia furfur: Since the urease activity of this fungus and the fungus growth rate are co-related, MIC was evaluated by the following method using urease activity as an index. MU medium was dispensed by 100 μL to a given well of a 96 well flat microplate. Then, a test compound solution (2 μL) was added, and the mixture was thoroughly mixed with a plate mixer. A fungal solution (100 μL) was inoculated and cultured at 30° C. The culture was stopped on day 4 or 5 of culture when the color tone of the MU medium changes from yellow to red in visual observation of the fungus growth in a well free of addition of a test substance. Then the plate was stirred until the fungus became uniform, and the urease activity was measured based on the measurement of absorbance at 550 nm using a plate reader.

[2] = test system: Trichophyton mentagrophytes KD-04; experiment: Antifungal activity evaluation test, MIC, Trichophyton mentagrophytes KD-04; settings: KD04, 168 h, Sabouraud Dextrose Broth, 30° C., 7 days, visual, read-out: MIC T. men. KD-04
Experimental: as §1

[3] = test system: Trichophyton rubrum KD-107; experiment: Antifungal activity evaluation test, MIC, Trichophyton rubrum KD-107; settings: KD107, 168 h, Sabouraud Dextrose Broth, 30° C., 7 days, visual, read-out: MIC T. rub. KD-107
Experimental: as §1

[4] = test system: Trichophyton mentagrophytes KD-04; experiment: Influence of keratin addition on anti-Trichophyton activity; settings: for MIC: Trichophyton mentagrophytes, KD04, 168 h, 30° C., 7 days; for MIC increase by the addition of keratin to medium: Trichophyton, text summary of Table 4
Experimental: The MIC increase rate by the addition of keratin to a medium was measured by the following procedure. • Test compound solution: A test compound was dissolved in dimethyl sulfoxide (DMSO) at a concentration of 5 mg/mL as a stock solution. Diluting this solution with DMSO, a 2-fold dilution series was prepared. • Test strain: Trichophyton mentagrophytes KD-04 was used. Preparation of Fungal Inoculum: the Above-Mentioned Strain was suspended in 0.05% Tween 80-containing physiological saline, and adjusted to a fungus concentration of 2×10^6 cells/mL using a counting chamber. […] The physiological saline was removed, and the mixture was further washed once with physiological saline (3 mL). The physiological saline was removed, and a test compound solution (10 μL) and Sabouraud Dextrose Broth (Difco) (500 μL) were added to keratin, and the mixture was sufficiently stirred. Then, inoculum (500 μL) of T. mentagrophytes KD-04 was added, and the mixture was cultured at 30° C. for 7 days. As a comparison control, an experiment similar to the above was performed under conditions free of keratin addition.

[5] = test system: Trichophyton mentagrophytes SM-110; experiment: Antifungal activity evaluation test, MIC, Trichophyton mentagrophytes SM-110; settings: SM110, 168 h, Sabouraud Dextrose Broth, 30° C., 7 days, visual, read-out: MIC T. men. SM-110
Experimental: as §1

[6] = test system: Malassezia furfur IFO-0656; experiment: Antifungal activity evaluation test, MIC by urease activity, Malassezia furfur IFO-0656; settings: IFO0656, 96 h, MU medium, 30° C., day 4 or 5, urease activity of 20% or below, read-out: MIC M. fur. IFO-0656
Experimental: as §1

[7] = T. mentagrophytes KD-04, free of keratin addition, read-out: MIC SDB alone
[8] = T. mentagrophytes KD-04, keratin 50 mg added, read-out: MIC SDB + keratin

Row | SMILES | MIC [1] | MIC [2] | MIC [3] | MIC [4, 7] | MIC [4, 8] | MIC [5] | MIC [6] | MIC increase by the addition of keratin to medium [4]
1 | CCC(C)(C)c1ccc(CC(C)CN2C[C@@H](C)O[C@@H](C)C2)cc1 (some centres unmarked) [AMF, amorolfine, reference compound] | 0.025 µg/mL (≈ 0.0787 µM) | 0.1 µg/mL (≈ 0.315 µM) | 0.025 µg/mL (≈ 0.0787 µM) | 0.05 µg/mL (≈ 0.157 µM) | 0.39 µg/mL | 0.05 µg/mL (≈ 0.157 µM) | 0.05 µg/mL (≈ 0.157 µM) | 
2 | CCc1ccccc1C(=NN(C)C)n1ccnc1 [Compound No. 4, N′-[1-(2-ethylphenyl)-1-imidazol-1-ylmethylidene]-N,N-dimethylhydrazine] | 0.78 µg/mL (≈ 3.22 µM) | 0.39 µg/mL (≈ 1.61 µM) | 0.78 µg/mL (≈ 3.22 µM) | 0.39 µg/mL (≈ 1.61 µM) | 0.78 µg/mL | 0.78 µg/mL (≈ 3.22 µM) | > 25 µg/mL | 
3 | CCOc1ccccc1C(=NN(C)C)n1ccnc1 [Compound No. 16, N′-[1-(2-ethoxyphenyl)-1-imidazol-1-ylmethylidene]-N,N-dimethylhydrazine] | 0.2 µg/mL (≈ 0.774 µM) | 0.2 µg/mL (≈ 0.774 µM) | 0.2 µg/mL (≈ 0.774 µM) | 0.39 µg/mL (≈ 1.51 µM) | 0.39 µg/mL | 0.39 µg/mL (≈ 1.51 µM) | 12.5 µg/mL (≈ 48.4 µM) | 
4 | CCCOc1ccccc1C(=NN(C)C)n1ccnc1 [Compound No. 17, N′-[1-imidazol-1-yl-1-(2-propoxyphenyl)methylidene]-N,N-dimethylhydrazine] | 0.2 µg/mL (≈ 0.734 µM) | 0.2 µg/mL (≈ 0.734 µM) | 0.2 µg/mL (≈ 0.734 µM) | 0.05 µg/mL (≈ 0.184 µM) | 0.1 µg/mL | 0.39 µg/mL (≈ 1.43 µM) | 3.13 µg/mL (≈ 11.5 µM) | 
5 | C=CCOc1ccccc1C(=NN(C)C)n1ccnc1 [Compound No. 20, N′-[1-(2-allyloxyphenyl)-1-imidazol-1-ylmethylidene]-N,N-dimethylhydrazine] | 0.1 µg/mL (≈ 0.37 µM) | 0.2 µg/mL (≈ 0.74 µM) | 0.1 µg/mL (≈ 0.37 µM) | 0.1 µg/mL (≈ 0.37 µM) | 0.2 µg/mL | 0.39 µg/mL (≈ 1.44 µM) | 12.5 µg/mL (≈ 46.2 µM) | 
6 | C/C=C\Oc1ccccc1C(=NN(C)C)n1ccnc1 [Compound No. 21, N′-[1-imidazol-1-yl-1-(2-(Z)-propenyloxyphenyl)methylidene]-N,N-dimethylhydrazine] | 0.2 µg/mL (≈ 0.74 µM) | 0.2 µg/mL (≈ 0.74 µM) | 0.2 µg/mL (≈ 0.74 µM) | 0.2 µg/mL (≈ 0.74 µM) | 0.2 µg/mL | 0.39 µg/mL (≈ 1.44 µM) | 6.25 µg/mL (≈ 23.1 µM) | 
7 | CCCCOc1ccccc1C(=NN(C)C)n1ccnc1 [Compound No. 23, N′-[1-(2-butoxyphenyl)-1-imidazol-1-ylmethylidene]-N,N-dimethylhydrazine] | 0.1 µg/mL (≈ 0.349 µM) | 0.1 µg/mL (≈ 0.349 µM) | 0.1 µg/mL (≈ 0.349 µM) | 0.1 µg/mL (≈ 0.349 µM) | 0.2 µg/mL | 0.2 µg/mL (≈ 0.698 µM) | 0.39 µg/mL (≈ 1.36 µM) | 
8 | CN(C)N=C(c1ccccc1OC(F)(F)F)n1ccnc1 [Compound No. 32, N′-[1-imidazol-1-yl-1-(2-trifluoromethoxyphenyl)methylidene]-N,N-dimethylhydrazine] | 0.39 µg/mL (≈ 1.31 µM) | 0.2 µg/mL (≈ 0.671 µM) | 0.39 µg/mL (≈ 1.31 µM) | 0.1 µg/mL (≈ 0.335 µM) | 0.2 µg/mL | 0.78 µg/mL (≈ 2.62 µM) | 6.25 µg/mL (≈ 21 µM) | 
9 | CN(C)N=C(c1ccccc1OC(F)(F)C(F)F)n1ccnc1 [Compound No. 33, N′-[1-imidazol-1-yl-1-[2-(1,1,2,2-tetrafluoroethoxy)phenyl]methylidene]-N,N-dimethylhydrazine] | 0.78 µg/mL (≈ 2.36 µM) | 0.78 µg/mL (≈ 2.36 µM) | 0.39 µg/mL (≈ 1.18 µM) | 0.39 µg/mL (≈ 1.18 µM) | 0.39 µg/mL | 1.56 µg/mL (≈ 4.72 µM) | 6.25 µg/mL (≈ 18.9 µM) | 
10 | CN(C)N=C(c1ccccc1OCCc1ccc(N(C)C)cc1)n1ccnc1 [Compound No. 60, N′-[1-imidazol-1-yl-1-[2-(4-dimethylaminophenethyloxy)phenyl]methylidene]-N,N-dimethylhydrazine] | 0.2 µg/mL (≈ 0.53 µM) | 0.2 µg/mL (≈ 0.53 µM) | 0.1 µg/mL (≈ 0.265 µM) | 0.1 µg/mL (≈ 0.265 µM) | 0.2 µg/mL | 0.39 µg/mL (≈ 1.03 µM) | 0.2 µg/mL (≈ 0.53 µM) | 
11 | COc1ccc(OCCOc2ccccc2C(=NN(C)C)n2ccnc2)cc1 [Compound No. 69, N′-[1-imidazol-1-yl-1-[2-[2-(4-methoxyphenoxy)ethoxy]phenyl]methylidene]-N,N-dimethylhydrazine] | 0.05 µg/mL (≈ 0.131 µM) | 0.2 µg/mL (≈ 0.526 µM) | 0.05 µg/mL (≈ 0.131 µM) | 0.2 µg/mL (≈ 0.526 µM) | 0.39 µg/mL | 0.39 µg/mL (≈ 1.03 µM) | 1.56 µg/mL (≈ 4.1 µM) | 
12 | CCSc1ccccc1C(=NN(C)C)n1ccnc1 [Compound No. 80, N′-[1-(2-ethylthiophenyl)-1-imidazol-1-ylmethylidene]-N,N-dimethylhydrazine] | 0.39 µg/mL (≈ 1.42 µM) | 0.2 µg/mL (≈ 0.729 µM) | 0.39 µg/mL (≈ 1.42 µM) | 0.78 µg/mL (≈ 2.84 µM) | 0.78 µg/mL | 0.78 µg/mL (≈ 2.84 µM) | 12.5 µg/mL (≈ 45.6 µM) | 
13 | CCCSc1ccccc1C(=NN(C)C)n1ccnc1 [Compound No. 81, N′-[1-imidazol-1-yl-1-(2-propylthiophenyl)methylidene]-N,N-dimethylhydrazine] | 0.39 µg/mL (≈ 1.35 µM) | 0.2 µg/mL (≈ 0.693 µM) | 0.2 µg/mL (≈ 0.693 µM) | 0.39 µg/mL (≈ 1.35 µM) | 0.39 µg/mL | 0.39 µg/mL (≈ 1.35 µM) | 3.13 µg/mL (≈ 10.9 µM) | 
14 | CN(C)N=C(c1cccn1Cc1ccccc1)n1ccnc1 [Compound No. 105, N′-[1-(1-benzylpyrrol-2-yl)-1-imidazol-1-ylmethylidene]-N,N-dimethylhydrazine] | 0.2 µg/mL (≈ 0.682 µM) | 0.2 µg/mL (≈ 0.682 µM) | 0.2 µg/mL (≈ 0.682 µM) | 0.39 µg/mL (≈ 1.33 µM) | 0.78 µg/mL | 0.39 µg/mL (≈ 1.33 µM) | 25 µg/mL (≈ 85.2 µM) | 
15 | CCC(C)n1ncn(-c2ccc(N3CCN(c4ccc(OCC5COC(Cn6cncn6)(c6ccc(Cl)cc6Cl)O5)cc4)CC3)cc2)c1=O (centres unmarked) [ITCZ, itraconazole, reference compound] | 0.1 µg/mL (≈ 0.142 µM) | 0.1 µg/mL (≈ 0.142 µM) | 0.05 µg/mL (≈ 0.0709 µM) | 0.05 µg/mL (≈ 0.0709 µM) | 25 µg/mL | 0.2 µg/mL (≈ 0.283 µM) | 0.05 µg/mL (≈ 0.0709 µM) | 
16 | CCC(C)(C)c1ccc(CC(C)CN2C[C@@H](C)O[C@@H](C)C2)cc1 (some centres unmarked) [amorolfine, reference compound] |  |  |  |  |  |  |  | 8 fold
17 | CCC(C)n1ncn(-c2ccc(N3CCN(c4ccc(OCC5COC(Cn6cncn6)(c6ccc(Cl)cc6Cl)O5)cc4)CC3)cc2)c1=O (centres unmarked) [itraconazole, reference compound] |  |  |  |  |  |  |  | 512 fold
